Assay results as given in the supplement of paper PMC10307832.

Legend:
Assay in all cases: relative viability (nuclei count vs DMSO), 5 days (fraction); higher = more cells survive
17-AAG + Luminespib = compound: C=CCNC1=C2C[C@@H](C)C[C@H](OC)[C@H](O)[C@@H](C)/C=C(\C)[C@H](OC(N)=O)[C@@H](OC)/C=C\C=C(/C)C(=O)NC(=CC1=O)C2=O [17-AAG] + CCNC(=O)c1noc(-c2cc(C(C)C)c(O)cc2O)c1-c1ccc(CN2CCOCC2)cc1 [Luminespib] (partner 0.01 µM)
How it was run: (§1)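 The day after seeding in 1536-well plates, lung cancer cell lines were treated by pin tool with a single drug, or with a fixed anchor-drug dose together with five library-drug doses (not always all listed) in √10 steps. After 5 days, a combined fix-and-stain solution (final 0.05% Triton X-100, 1% formaldehyde, 1 ug/ml Hoechst) was added. Nuclei counted on 4× images gave relative viability as treated counts over vehicle counts, reported as the median of duplicate plates.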

17-AAG + Decitabine = compound: C=CCNC1=C2C[C@@H](C)C[C@H](OC)[C@H](O)[C@@H](C)/C=C(\C)[C@H](OC(N)=O)[C@@H](OC)/C=C\C=C(/C)C(=O)NC(=CC1=O)C2=O [17-AAG] + Nc1ncn([C@H]2C[C@H](O)[C@@H](CO)O2)c(=O)n1 [Decitabine] (partner 2 µM)
How it was run: as §1

17-AAG + Dasatinib = compound: C=CCNC1=C2C[C@@H](C)C[C@H](OC)[C@H](O)[C@@H](C)/C=C(\C)[C@H](OC(N)=O)[C@@H](OC)/C=C\C=C(/C)C(=O)NC(=CC1=O)C2=O [17-AAG] + Cc1nc(Nc2ncc(C(=O)Nc3c(C)cccc3Cl)s2)cc(N2CCN(CCO)CC2)n1 [Dasatinib] (partner 0.075 µM)
How it was run: as §1

17-AAG + Foretinib = compound: C=CCNC1=C2C[C@@H](C)C[C@H](OC)[C@H](O)[C@@H](C)/C=C(\C)[C@H](OC(N)=O)[C@@H](OC)/C=C\C=C(/C)C(=O)NC(=CC1=O)C2=O [17-AAG] + COc1cc2c(Oc3ccc(NC(=O)C4(C(=O)Nc5ccc(F)cc5)CC4)cc3F)ccnc2cc1OCCCN1CCOCC1 [Foretinib] (partner 0.25 µM)
How it was run: as §1

Row | Cell Line | relative viability (17-AAG + Luminespib; first compound 0.00128 µM) | relative viability (17-AAG + Luminespib; first compound 0.004048 µM) | relative viability (17-AAG + Luminespib; first compound 0.0128 µM) | relative viability (17-AAG + Luminespib; first compound 0.04048 µM) | relative viability (17-AAG + Luminespib; first compound 0.128 µM) | relative viability (17-AAG + Decitabine; first compound 0.00128 µM) | relative viability (17-AAG + Decitabine; first compound 0.004048 µM) | relative viability (17-AAG + Decitabine; first compound 0.0128 µM) | relative viability (17-AAG + Decitabine; first compound 0.04048 µM) | relative viability (17-AAG + Decitabine; first compound 0.128 µM) | relative viability (17-AAG + Dasatinib; first compound 0.00128 µM) | relative viability (17-AAG + Dasatinib; first compound 0.004048 µM) | relative viability (17-AAG + Dasatinib; first compound 0.0128 µM) | relative viability (17-AAG + Dasatinib; first compound 0.04048 µM) | relative viability (17-AAG + Dasatinib; first compound 0.128 µM) | relative viability (17-AAG + Foretinib; first compound 0.00128 µM) | relative viability (17-AAG + Foretinib; first compound 0.004048 µM) | relative viability (17-AAG + Foretinib; first compound 0.0128 µM) | relative viability (17-AAG + Foretinib; first compound 0.04048 µM) | relative viability (17-AAG + Foretinib; first compound 0.128 µM)
1 | LOU-NH91 | 0.345 | 0.239 | 0.282 | 0.3 | 0.291 | 0.806 | 0.724 | 0.623 | 0.47 | 0.393 | 0.535 | 0.421 | 0.359 | 0.295 | 0.273 | 0.868 | 0.727 | 0.633 | 0.36 | 0.279
2 | LU99A | 0.239 | 0.201 | 0.213 | 0.169 | 0.146 | 0.917 | 0.915 | 0.863 | 0.749 | 0.213 | 0.508 | 0.387 | 0.283 | 0.13 | 0.0659 | 0.931 | 0.783 | 0.719 | 0.222 | 0.213
3 | LXF-289 | 0.628 | 0.556 | 0.377 | 0.121 | 0.0993 | 0.4 | 0.473 | 0.355 | 0.297 | 0.19 | 0.234 | 0.183 | 0.0975 | 0.064 | 0.0605 | 1.05 | 0.961 | 0.879 | 0.381 | 0.152
4 | NCI-H23 | 0.242 | 0.208 | 0.19 | 0.206 | 0.202 | 0.294 | 0.226 | 0.251 | 0.185 | 0.16 | 0.697 | 0.746 | 0.389 | 0.165 | 0.119 | 0.906 | 1.04 | 0.842 | 0.641 | 0.182
5 | NCI-H522 | 0.902 | 1.03 | 0.948 | 1.02 | 0.451 | 0.668 | 0.769 | 0.686 | 0.584 | 0.431 | 0.822 | 0.799 | 0.77 | 0.632 | 0.443 |  |  |  |  | 
6 | NCI-H1299 |  |  |  |  |  |  |  |  |  |  |  |  |  |  |  | 1.12 | 1.03 | 1.08 | 1.04 | 0.945
7 | NCI-H1563 | 0.476 | 0.497 | 0.537 | 0.525 | 0.49 |  |  |  |  |  | 0.493 | 0.504 | 0.481 | 0.42 | 0.324 | 1.04 | 0.83 | 0.559 | 0.549 | 0.5
8 | NCI-H1648 |  |  |  |  |  |  | 0.522 | 0.547 | 0.38 | 0.324 |  |  |  |  |  |  |  |  |  | 
9 | NCI-H1703 |  |  |  |  |  |  |  |  |  |  |  |  |  |  |  | 0.325 | 0.331 | 0.215 | 0.229 | 0.191
10 | NCI-H1792 | 0.351 | 0.418 | 0.255 | 0.268 | 0.213 | 0.444 | 0.345 | 0.194 | 0.12 | 0.0575 | 0.761 | 0.75 | 0.611 | 0.493 | 0.31 |  |  |  |  | 
11 | NCI-H2228 | 0.124 | 0.102 | 0.11 | 0.157 | 0.107 |  |  |  |  |  | 0.46 | 0.119 | 0.0679 | 0.089 | 0.0837 | 0.772 | 0.587 | 0.142 | 0.119 | 0.0997
